{"source": "patent US20230129137A1", "about": "“USE OF TT-10-LOADED NANOPARTICLES FOR CARDIAC REPAIR” (THE UAB RESEARCH FOUNDATION, priority 2021, published 2023)", "key": {"[1]": {"tested_on": "hiPSC-CMs", "assay": "cell cycle activity and proliferation markers in cultured hiPSC-CMs (immunofluorescence)", "type": "cell-based, human", "settings": "TT-10 0, 2, 10, 20 or 100 μM, 48 hours", "method": "FIGS. 1A-1E show TT-10 increased cell cycle activity and proliferation in cultured human pluripotent stem sell derived cardiomyocytes (hiPSC-CMs). (FIG. 1A) TT-10 (C11H10FN3OS2; molecular weight, 283.34 Da) contains 4 C═C, 1 C═N, and 1 C═O double bond. Maximum UV/Vis absorbance is approximately 200 nm. (FIGS. 1B-1E) hiPSC-CMs were cultured under standard conditions (—) or treated with varying concentrations of TT-10 (2 μM, 10 μM, 20 μM, or 100 μM) for 48 hours and immunofluorescently stained for the human isoform of cardiac troponin T (hcTnT). Nuclei were identified by staining with 4′,6′-diamidinio-2-phenylindole (DAPI) or with DAPI and Nkx2.5 antibodies. (FIG. 1B) Proliferation was evaluated via immunofluorescence costaining for antigen KI 67 (Ki67) and quantified as the percentage of Ki67-positive cells. (FIG. 1C) hiPSC-CMs in the S phase of the cell cycle were identified via immunofluorescence costaining for bromodeoxyuridine (BrdU) incorporation and quantified as the percentage of BrdU-positive cells. (FIG. 1D) hiPSC-CMs in the M phase of the cell cycle were identified via immunofluorescence costaining for histone 3 phosphorylation (PH3) and quantified as the percentage of PH3-positive cells. (FIG. 1E) hiPSC-CMs undergoing cytokinesis were identified via immunofluorescence costaining for Aurora B (AuB) and quantified as the percentage of AuB-positive cells. Scale bar: 20 μm. All experiments were repeated 5 times. […], 1-way ANOVA with Tukey's correction.\nFIGS. 8A-8B show TT-10-NPs promoted proliferation in cultured hiPSC-CMs. hiPSC-CMs were cultured for 48 hours with or without 1 mg/mL coumarin-6-loaded TT-10-NPs (green); then, the cells were immunofluorescently stained for the human isoform of cardiac troponin I (hcTnI, gray), and nuclei were identified via DAPI staining (blue). Internalized NPs are identified with an arrow. Scale bar: 20 μm. (FIG. 8A) Proliferation was evaluated via immunofluorescence costaining for Ki67 and quantified as the percentage of Ki67-positive cells. (FIG. 8B) hiPSC-CMs in the M-phase of the cell cycle were identified via immunofluorescence costaining for PH3 and quantified as the percentage of PH3-positive cells. *P<0.01, Student's t-test; n=5 experiments.\nThe effect of TT-10 (FIG. 1A) on cardiomyocyte cell cycle activity and proliferation was determined by culturing human induced pluripotent stem cell-derived cardiomyocytes (hiPSC-CMs) in varying concentrations of TT-10 (0, 2 μM, 10 μM, 20 μM or 100 μM) for 48 hours and then evaluating the presence of markers for cell proliferation (Ki67 expression, FIG. 1B), S phase (BrdU incorporation, FIG. 1C), and M phase (histone 3 phosphorylation [PH3], FIG. 1D) of the cell cycle and for cytokinesis (Aurora B, FIG. 1E). […]"}, "[2]": {"tested_on": "hiPSC-CMs", "assay": "apoptosis of hiPSC-CMs by TUNEL staining", "type": "cell-based, human", "settings": "10 μM TT-10", "method": "(§1) FIGS. 2A-2B show TT-10 enhanced survival and nuclear Yap levels in cultured hiPSC-CMs. (FIG. 2A) Apoptosis was evaluated via TUNEL staining and quantified as the percentage of TUNEL-positive cells. (FIG. 2B) hiPSC-CMs were immunofluorescently costained for Yap, and the proportion of cells with Yap-positive nuclei is presented as a percentage. Scale bar: 20 μm. All experiments were repeated 5 times. *P<0.01, Student's t test.\n(§2) The effect of TT-10 (FIG. 1A) on cardiomyocyte cell cycle activity and proliferation was determined by culturing human induced pluripotent stem cell-derived cardiomyocytes (hiPSC-CMs) in varying concentrations of TT-10 (0, 2 μM, 10 μM, 20 μM or 100 μM) for 48 hours and then evaluating the presence of markers for cell proliferation (Ki67 expression, FIG. 1B), S phase (BrdU incorporation, FIG. 1C), and M phase (histone 3 phosphorylation [PH3], FIG. 1D) of the cell cycle and for cytokinesis (Aurora B, FIG. 1E). […] The effect of TT-10 on YAP pathway activity was also evaluated via Western blot (FIG. 7): total Yap levels in hiPSC-CMs treated with or without TT-10 were similar, but phosphorylated Yap (p-Yap) was less abundant in TT-10-treated cells.\nTUNEL. TUNEL staining was performed with an in situ cell death detection kit (Roche). […] Apoptosis was quantified as the proportion of cells that were TUNEL positive."}, "[3]": {"tested_on": "Yap", "assay": "nuclear Yap in hiPSC-CMs (immunofluorescence)", "type": "cell-based, human", "settings": "10 μM TT-10", "method": "as §1, §2\nImmunofluorescence. […] After staining, analyses were conducted with a fluorescence microscope."}, "[4]": {"tested_on": "YAP signaling pathway", "assay": "YAP and phosphorylated YAP abundance by Western blot in hiPSC-CMs", "type": "cell-based, human", "settings": "10 μM TT-10, 48 hours, with vs without TT-10", "method": "as §2\nWestern blot. hiPSC-CMs were lysed with M-PER Mammalian Protein Extraction Reagent (Thermo Fisher Scientific) supplemented with Halt Protease and Phosphatase Inhibitor Cocktail (Thermo Fisher Scientific). Extracted protein was quantified by BCA protein assay kit (Thermo Fisher Scientific) and denatured by heating at 95° C. for 10 minutes. Equal quantity of protein were loaded and separated by 4%-15% precast SDS-PAGE gels (Bio-Rad), and then transferred onto a polyvinylidene difluoride membrane (Bio-Rad). […] Protein signals were imaged with a Bio-Rad ChemiDoc System and analyzed by ImageJ. […]"}, "[5]": {"tested_on": "mouse MI", "settings": "intraperitoneal injections of TT-10, mice after MI; cited from earlier work"}, "[6]": {"tested_on": "cardiomyocytes", "settings": "cited from earlier work"}}, "note": "“Also recorded” adds a separate entry of the source."}
{"smiles": "C=CCNc1nc(N)c(C(=O)c2ccc(F)s2)s1", "note": "[TT-10, (2-(allylamino)-4-aminothiazol-5-yl)(5-fluorothiophen-2-yl)methanone]", "values": [{"measurement": "proportion of cells displaying Aurora B (cytokinesis)", "setting": "[1]", "result": "peaked at 10 to 20 μM TT-10"}, {"measurement": "proportion of cells displaying BrdU incorporation (S phase)", "setting": "[1]", "result": "peaked at 10 to 20 μM TT-10"}, {"measurement": "proportion of cells displaying Ki67 (cell proliferation)", "setting": "[1]", "result": "peaked at 10 to 20 μM TT-10"}, {"measurement": "proportion of cells displaying histone 3 phosphorylation PH3 (M phase)", "setting": "[1]", "result": "peaked at 10 to 20 μM TT-10"}, {"measurement": "hiPSC-CM apoptosis (TUNEL staining)", "setting": "[2]", "result": "significantly reduced"}, {"measurement": "proportion of hiPSC-CMs with Yap-positive nuclei", "setting": "[3]", "result": "significantly increased"}, {"measurement": "phosphorylated Yap (p-Yap) abundance (Western blot)", "setting": "[4]", "result": "less abundant"}, {"measurement": "total Yap levels (Western blot)", "setting": "[4]", "result": "similar"}, {"measurement": "cardiac function at later time points", "setting": "[5]", "result": "did not prevent progressive declines"}, {"measurement": "cardiomyocyte cell cycle activity", "setting": "[5]", "result": "promoted"}, {"measurement": "infarct size", "setting": "[5]", "result": "declines in infarct size; also recorded: reduced"}, {"measurement": "measures of cardiac function vs delivery vehicle", "setting": "[5]", "result": "significantly better"}, {"measurement": "cardiomyocyte survival and proliferation", "setting": "[6]", "result": "promoted"}]}
